Earlier results, collected in patent US5770699A, “Process for production of inhibited forms of activated blood factors” (COR Therapeutics, Inc., priority 1996, dated 1998).

Biological target: Factor Xa
Conditions: transient (reversible) inhibition of Factor Xa; stated as known; cited from earlier work

N=C(N)c1ccc2oc(CCc3cc4cc(C(=N)N)ccc4o3)cc2c1 [1,2-bis(5-amidino 2-benzofuranyl) ethane]
Ki: 570 nM
